The test system of data set [1] is U87MG cells subcutaneous tumor. The data set can be described thus: Concentration of radioactivity in tumor of labeled compounds (Test Example 4). Format: in vivo, mouse. Particulars: tail vein, 111In 740 kBq, 64Cu and 90Y 500 kBq. The procedure, abridged:
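Balb/cAJcl-nu/nu mice (6–9 weeks) bearing subcutaneous U87MG flank tumours (1×10^7 cells; 200–500 mm^3), 3 per time point, received ^111In-labeled (740 kBq), ^64Cu- or ^90Y-labeled compound (500 kBq) i.v. via tail vein. At set times tumours were excised, weighed and gamma-counted; uptake expressed as % ID/g.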

The subject of data set [2] is U87MG cells subcutaneous tumor. Put plainly: Imaging of integrin-expressing tumor with gamma camera. Format: in vivo. To be noted: 1 MBq/mouse tail vein, 24 hours to 72 hours after administration, FIG. 6. Here is the method:
U87MG cells were subcutaneously transplanted at 1×10^7 cells/mouse to the right flank of Balb/cAJcl-nu/nu (CLEA Japan, Inc., male, 6 weeks old). After 2 weeks, a dosing solution of the radiolabeled compound [^111In]-(P2) was administered at 1 MBq/mouse to the tail veins of mice whose tumors became 300 to 600 mm^3. 24, 48, and 72 hours after administration, the planar images were taken with a gamma camera (Symbia, Siemens AG) under isoflurane anesthesia. The radioactivity in the tumors (% ID) was calculated by image analysis.

Data set [3] has as its system U87MG cells intracranial tumor. Put plainly: Imaging of integrin-expressing tumor, intracranial tumor model. Format: in vivo. Particulars: 1 MBq/mouse tail vein, FIG. 7. As to the method: U87MG cells were intracranially transplanted at 1×10^7 cells/mouse to Balb/cAJcl-nu/nu (CLEA Japan, Inc., male, 6 weeks old) using a tapered needle. After 2 to 4 weeks, a dosing solution of the radiolabeled compound [^111In]-(P2) was administered at 1 MBq/mouse to the tail veins of the mice. 24, 48, and 72 hours after administration, the planar images were taken with a gamma camera (Symbia, Siemens AG) under isoflurane anesthesia (FIG. 7). After the imaging at the final time point, the brain was extracted, and frozen sections were prepared. Several pieces of the tumor sections were contacted with IP plates, and accumulation images were obtained by autoradiography (ARG). The serial sections were stained with hematoxylin-eosin to confirm tumors.

Data set [4] can be described thus: Blood kinetic parameters in monkey. Particulars: cynomolgus monkey, blood radioactivity, 98 MBq. Format: in vivo. As to the method: (§1) Blood kinetic parameters were calculated with OLINDA/EXM 1.0 from the blood concentration of radioactivity by blood collection over time from a cynomolgus monkey using [^111In]-(P2). Also, absorbed doses in each organ in the case of administration to humans were calculated with OLINDA/EXM 1.0 from organ distribution by imaging using [^111In]-(P2). The radiolabeled compound [^111In]-(P2) (98 MBq/[…]) was administered to a cynomolgus monkey (Hamri Co., Ltd., male, 3 years old, 3.4 kg) under anesthesia. After the administration, blood collection and imaging with a gamma camera were performed over time. The blood collection was carried out 10 minutes, 30 minutes, 60 minutes, 2 hours, 4 hours, 5 hours, 6 hours, 24 hours, 48 hours, 72 hours, and 144 hours after administration. The imaging was carried out 1, 2, 4, 6, 24, 48, 72, and 144 hours after administration with a gamma camera (Symbia, Siemens AG) to take planar images. The anesthesia was carried out using 20 mg/kg ketamine before administration of [^111In]-(P2) and maintained by inhalation anesthesia (2 to 3% isoflurane, 5 to 8 L/min) until the completion of the imaging at 6 hours after administration. At or after 24 hours after administration, blood collection and imaging were performed by the introduction of 20 mg/kg ketamine and 2 mg/kg xylazine. […] The blood kinetic parameters are shown below.

A short description of data set [5]: Time-dependent planar imaging of monkey. It is filed as in vivo. To be noted: cynomolgus monkey, from administration to 6 hours later, FIG. 9. Here is the method:
as §1, with “below. […]” for “below.”

Data set [6] can be described thus: Absorbed doses in each organ in humans calculated with OLINDA/EXM 1.0 from monkey organ distribution. Format: in vivo. To be noted: calculated with OLINDA/EXM 1.0 from monkey imaging with [111In]-(P2). As to the method: as §1
The nature of data set [7]: Radiochemical purity after standing at room temperature. It is filed as physicochemical. To be noted: immediately after preparation and after standing at room temperature for 24 hours. As to the method: To a mixed solution of compound (P2) (8.5 μg) and a 0.2 mol/L sodium acetate buffer solution (pH 4.0) (1.5 mL), a [^111In] indium chloride solution (80 MBq, 100 μL) was added. The mixture was heated at 100° C. for 15 minutes and then left at room temperature for 5 minutes to obtain radiolabeled compound [^111In]-(P2). […] Its radiochemical purity was 95% or more both immediately after preparation and after standing at room temperature for 24 hours.
To a mixed solution of compound (P2) (79 μg), gentisic acid (1.8 mg), a 0.6 mol/L sodium acetate buffer solution (pH 4.0, 120 μL), and a 0.4 mol/L aqueous sodium hydroxide solution (24 μL), a [^90Y] yttrium chloride solution (700 MBq, 240 μL) was added. The mixture was heated at 100° C. for 20 minutes and then left at room temperature for 5 minutes to obtain radiolabeled compound [^90Y]-(P2). […] Its radiochemical purity was 95% or more both immediately after preparation and after standing at room temperature for 24 hours.
To a mixed solution of compound (P2) ([…]) and a 0.2 mol/L sodium acetate buffer solution (pH 4.0, 219 μL), a [^64Cu] copper chloride solution (pH 5, 35 MBq, 55 μL) was added. The mixture was heated at 100° C. for 15 minutes and then left at room temperature for 5 minutes to obtain radiolabeled compound [^64Cu]-(P2). […] Its radiochemical purity was 90% or more both immediately after preparation and after standing at room temperature for 22 hours.
To a mixed solution of compound (Aa7) (4.2 μg), gentisic acid (1 mg), and a 0.2 mol/L sodium acetate buffer solution (pH 4.0) (5.0 μL), [^64Cu] copper chloride in a 0.2 mol/L sodium acetate buffer solution (pH 4.0) (40 MBq, 155 μL) was added. The mixture was heated at 100° C. for 15 minutes and then left at room temperature for 5 minutes to obtain radiolabeled compound [^64Cu]-(Aa7). […] Its radiochemical purity was 90% or more both immediately after preparation and after standing at room temperature for 24 hours.

Results on 1 molecule are retold here after patent publication US11426473B2, “Nitrogen-containing compound or salt thereof, or metal complex thereof” (FUJIFILM Corporation, priority 2013, dated 2022).

For the molecule `Cc1cc(OCCCC(=O)NCCNC(=O)[C@H](CS(=O)(=O)O)NC(=O)CN2CCN(CC(=O)[O-])CCN(CC(=O)[O-])CCN(CC(=O)[O-])CC2)cc(C)c1S(=O)(=O)N[C@@H](CNC(=O)CCCCc1ccc2c(n1)NCCC2)C(=O)O.[111In+3]` [[^111In]-(P2)], in data set [1] (4 hours later), the “Concentration of radioactivity in tumor” value was found to be 11.10 % ID/g. Moreover, in data set [1] (24 hours later), the “Concentration of radioactivity in tumor” value is reported as 9.62 % ID/g. Moreover, the “radioactivity in tumor versus other organs, planar images” value in data set [2] is on record as “radioactivity was higher in the tumor than other organs”. The “accumulation in intracranial tumor by planar imaging and ARG” value in data set [3] is “consistent with the tumor was confirmed”. In addition, in data set [4], the AUC was found to be 0.22 % ID · h/mL, the CL is 2.17 mL/min/kg, the Cmax is given as 0.018 % ID/mL and the “T½ α” value is 0.46 h. In addition, in data set [4], the “T½ β” value turned out to be 19.3 h and the Vss was 3.52 L/kg. Also, in data set [5], the “organ accumulation on planar images” value is “accumulation to the bladder and the gallbladder was increased over time”. For the same molecule, in data set [6], the “Absorbed dose, Brain” value is reported as 0.25 mGy/MBq; the “Absorbed dose, Kidney” value is on record as 1.19 mGy/MBq; the “Absorbed dose, Liver” value is listed as 0.19 mGy/MBq; the “Absorbed dose, Lung” value is given as 0.12 mGy/MBq. In data set [6], the “Absorbed dose, Red bone marrow” value was 0.05 mGy/MBq; the “Absorbed dose, Small intestine” value was 0.05 mGy/MBq; the “Absorbed dose, Whole body” value is on record as 0.05 mGy/MBq. Moreover, the “radiochemical purity after standing” value in data set [7] was at least 95%.
